According to patent US4100346A, “Certain 7(o-amino-methyl- or methylaminomethylphenyl- or cyclohexadienyl- or thienylacetamide)-3[1-carboxymethyl-(or ethyl- or propyl-)-tetrazol-5-ylthiomethyl]-3-cephem-4-carboxylic acids” (Bristol-Myers Company, priority 1976, dated 1978):
≈ marks a conversion by molar mass, not a printed value. Like-named read-outs stand apart in the source and are kept apart here.

Key:
K. pneumoniae = assay: M.I.C. by Tube Dilution in Nutrient Broth (Examples 1 and 2); assay type: cell-based; details: Klebsiella pneumoniae
Source text: | **Dilution of overnight broth culture

Clostridium sp. = assay: microbe, parasite or virus in culture; assay type: cell-based
Experimental: Antibiotic spectrum. […] Procedures were as follows:
c. Obligate anaerobes. The assay was performed on solid medium, consisting of Brain Heart Infusion Broth (BBL) supplemented with 5% defibrinated sheep blood and 1% Ionagar (Colab).

[1] = test system: Mycobacterium tuberculosis; assay type: cell-based
[2] = test system: Escherichia coli, Klebsiella pneumoniae, Proteus mirabilis, Proteus vulgaris, Salmonella sp., Shigella sp. and Neisseria meningitidis; assay: Growth inhibitory activity, antibiotic dilution technique (text summary); assay type: cell-based; details: growth inhibitory activity vs cephalothin, cephaloridine, cefazolin
Enterobacter aerogenes = assay: Minimum growth inhibitory and bactericidal concentrations for Enterobacteriaceae; assay type: cell-based; details: Klebsiella aerogenes, inoculum 10^4 cells; for MBC: read-out: MBC, minimum bactericidal concentration; for MIC: read-out: MIC, Minimum growth inhibitory concentration
Source text: (§1) Miscellaneous. Methods for determining bactericidal activity and susceptibility to cell-free β-lactamase were those previously used; Leitner et al., BL-S640, A Cephalosporin With a Broad Spectrum of Antibacterial Activity: Properties in vitro, Antimicrob. Agents Chemother. 7:298-305 (1975).
(§2) *MIC, Minimum growth inhibitory concentration; MBC, minimum bactericidal
(§3) concentration; expressed as micrograms per milliliter. The inoculum was […]

Enterobacter cloacae = assay: as above; assay type: cell-based; details: for MBC: read-out: MBC, minimum bactericidal concentration; for MIC: read-out: MIC, Minimum growth inhibitory concentration
Source text: as §1, §2, §3

Escherichia coli = assay: as above; assay type: cell-based; details: for MBC: read-out: MBC, minimum bactericidal concentration; for MIC: read-out: MIC, Minimum growth inhibitory concentration
Source text: as §1, §2, §3

Proteus rettgeri = assay: as above; assay type: cell-based; details: Providencia rettgeri, inoculum 10^4 cells; for MBC: read-out: MBC, minimum bactericidal concentration; for MIC: read-out: MIC, Minimum growth inhibitory concentration
Source text: as §1, §2, §3

[3] = molecular target: staphylococcal β-lactamase, Staphylococcus aureus A9606 (Staphylococcus aureus, UniProt P00807); assay: Hydrolysis by β-lactamase in cell-free extracts; assay type: biochemical; details: cell-free extract
Chain of staphylococcal β-lactamase, Staphylococcus aureus A9606 (P00807 25-281): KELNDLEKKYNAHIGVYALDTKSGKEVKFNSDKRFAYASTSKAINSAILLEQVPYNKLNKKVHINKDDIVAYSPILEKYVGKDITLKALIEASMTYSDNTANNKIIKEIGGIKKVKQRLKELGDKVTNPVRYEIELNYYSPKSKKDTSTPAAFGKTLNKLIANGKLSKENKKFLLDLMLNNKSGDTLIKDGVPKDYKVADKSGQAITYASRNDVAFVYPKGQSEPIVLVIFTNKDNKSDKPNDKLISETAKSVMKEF
Experimental: as §1
Susceptibility to β-lactamase. Susceptibility to enzymic hydrolysis was assessed by determining relative rates of hydrolysis by cell-free preparations of various β-lactamases (Table 6). BL-S786 was slightly to markedly less susceptible than the other cephalosporins to hydrolysis by β-lactamases of Type Ia, Ib, IIIa and IVa. All cephalosporins were poor substrates for Type IIa and staphylococcal β-lactamases. The four cephalosporins were hydrolyzed at similar rates by the Type IVb enzyme.

Staphylococcus aureus = assay: Intramuscular treatment of systemically infected mice; assay type: in vivo; details: im, read-out: PD50 /treatment
Source text: (§4) Treatment of Systemically Infected Mice. The procedures were identical with those published previously [Leitner et al., BL-S640, a Cephalosporin With a Broad Spectrum of Antibacterial Activity: Bioavailability and Therapeutic Properties in Rodents, Antimicrob. Agents Chemother. 7:306-310, (1975)], except that:
(§5) (a) the hog gastric mucin used in infections with Staphylococcus aureus No. 2 was purchased from American Laboratories, Inc., Omaha, Neb. (lot No. 154163) and b) that the medium used to suspend all other organisms contained 3% (rather than 4%) hog gastric mucin (type 1701W, Wilson Laboratories, Inc., Park Forest South, Ill.).
(§6) *Animals infected with penicillinase-producing staphyloccal strains (No.
(§7) and 3) were treated 0 and 2 hours after infection; the others were treate
(§8) 1 and 3.5 hours after infection.

Streptococcus pneumoniae = assay: as above; assay type: in vivo; details: im, 3.5 h, read-out: PD50 /treatment
Source text: as §4, §5, §6, §7, §8

Streptococcus pyogenes = assay: as above; assay type: in vivo; details: im, 3.5 h, read-out: PD50 /treatment
Source text: as §4, §5, §6, §7, §8

Arizona hinshawii = assay: Growth inhibitory activity, antibiotic dilution technique; details: Salmonella enterica, read-out: Minimum inhibitory concentration
Listeria monocytogenes = assay: as above; details: read-out: Minimum inhibitory concentration
S. pneumoniae = assay: as above; details: Streptococcus pneumoniae, read-out: concentration inhibiting all strains
S. pyogenes = assay: as above; details: Streptococcus pyogenes, read-out: concentration inhibiting all strains
Neisseria gonorrhoeae = assay: as above
Proteus vulgaris = assay: Effect of inoculum size on susceptibility of Enterobacteriaceae
[4] = Antibiotic concentration in blood after intramuscular injection; details: mouse, im
[5] = Enterobacter aerogenes strain 1
[6] = Enterobacter aerogenes strain 2
[7] = Enterobacter aerogenes strain 3
[8] = Enterobacter cloacae strain 3, inoculum 10^4 cells
[9] = Enterobacter cloacae strain 4, inoculum 10^4 cells
[10] = Enterobacter cloacae strain 8, inoculum 10^4 cells
[11] = Escherichia coli strain 1, inoculum 10^4 cells
[12] = Escherichia coli strain 2, inoculum 10^4 cells
[13] = Escherichia coli strain 3, inoculum 10^4 cells
[14] = Escherichia coli strain 4, inoculum 10^4 cells
[15] = Escherichia coli strain 5, inoculum 10^4 cells
[16] = Escherichia coli strain 6, inoculum 10^4 cells

NCc1ccccc1CC(=O)N[C@@H]1C(=O)N2C(C(=O)O)=C(CSc3nnnn3CC(=O)O)CS[C@H]12 [Example 1]
MIC (K. pneumoniae; K. pneumoniae A9977 (10^-4)): 0.13 µg/mL (≈ 0.25 µM)
MIC (K. pneumoniae; K. pneumoniae A15130 (10^-4)): 2 µg/mL (≈ 3.85 µM)
MIC (Clostridium sp.; 48 h, read-out: concentration inhibiting all strains): 2 µg/mL (≈ 3.85 µM)
MIC (Clostridium sp.; read-out: Minimum inhibitory concentration): 2 µg/mL (≈ 3.85 µM)
times more active than the control compounds [1]: 4 to 32
times more active than the reference cephalosporins [2]: 2 to 16
MBC (Enterobacter aerogenes; [5]): 2 µg/mL (≈ 3.85 µM)
MIC (Enterobacter aerogenes; [5]): 2 µg/mL (≈ 3.85 µM)
MBC (Enterobacter aerogenes; [6]): 2 µg/mL (≈ 3.85 µM)
MIC (Enterobacter aerogenes; [6]): 2 µg/mL (≈ 3.85 µM)
MBC (Enterobacter aerogenes; [7]): 16 µg/mL (≈ 30.8 µM)
MIC (Enterobacter aerogenes; [7]): 8 µg/mL (≈ 15.4 µM)
MBC (Enterobacter cloacae; [8]): 8 µg/mL (≈ 15.4 µM)
MIC (Enterobacter cloacae; [8]): 4 µg/mL (≈ 7.7 µM)
MBC (Enterobacter cloacae; [9]): 63 µg/mL (≈ 121 µM)
MIC (Enterobacter cloacae; [9]): 8 µg/mL (≈ 15.4 µM)
MBC (Enterobacter cloacae; [10]): 63 µg/mL (≈ 121 µM)
MIC (Enterobacter cloacae; [10]): 63 µg/mL (≈ 121 µM)
MBC (Escherichia coli; [11]): 0.5 µg/mL (≈ 0.962 µM)
MIC (Escherichia coli; [11]): 0.5 µg/mL (≈ 0.962 µM)
MBC (Escherichia coli; [12]): 16 µg/mL (≈ 30.8 µM)
MIC (Escherichia coli; [12]): 16 µg/mL (≈ 30.8 µM)
MBC (Escherichia coli; [13]): 0.5 µg/mL (≈ 0.962 µM)
MIC (Escherichia coli; [13]): 0.25 µg/mL (≈ 0.481 µM)
MBC (Escherichia coli; [14]): 0.5 µg/mL (≈ 0.962 µM)
MIC (Escherichia coli; [14]): 0.5 µg/mL (≈ 0.962 µM)
MBC (Escherichia coli; [15]): 1 µg/mL (≈ 1.92 µM)
MIC (Escherichia coli; [15]): 1 µg/mL (≈ 1.92 µM)
MBC (Escherichia coli; [16]): 1 µg/mL (≈ 1.92 µM)
MIC (Escherichia coli; [16]): 1 µg/mL (≈ 1.92 µM)
MBC (Proteus rettgeri; Proteus rettgeri strain 2): 0.13 µg/mL (≈ 0.25 µM)
MIC (Proteus rettgeri; Proteus rettgeri strain 2): 0.063 µg/mL (≈ 0.121 µM)
MBC (Proteus rettgeri; Proteus rettgeri strain 3): 63 µg/mL (≈ 121 µM)
MIC (Proteus rettgeri; Proteus rettgeri strain 3): 0.25 µg/mL (≈ 0.481 µM)
Relative Rate of Hydrolysis (benzylpenicillin = 100) [3]: < 0.5
ED50 (Staphylococcus aureus; 3.5 h, Staphylococcus aureus strain 1, challenge 2 × 10^5 - 3 × 10^5, treated 1 and 3.5 hours after infection): 0.3 mg/kg
ED50 (Staphylococcus aureus; Staphylococcus aureus strain 2 (penicillinase-producing), challenge 1 × 10^9, treated 0 and 2 hours after infection): 5.4 mg/kg
ED50 (Staphylococcus aureus; Staphylococcus aureus strain 3 (penicillinase-producing), challenge 5 × 10^8 - 7 × 10^9, treated 0 and 2 hours after infection): 10 mg/kg
ED50 (Streptococcus pneumoniae; Streptococcus pneumoniae strain 1, challenge 2 × 10^3 - 9 × 10^3, treated 1 and 3.5 hours after infection): 0.52 mg/kg
ED50 (Streptococcus pneumoniae; Streptococcus pneumoniae strain 2, challenge 1 × 10^4 - 3 × 10^4, treated 1 and 3.5 hours after infection): 1.6 mg/kg
ED50 (Streptococcus pyogenes; Streptococcus pyogenes strain 1, challenge 2 × 10^3 -6 × 10^3, treated 1 and 3.5 hours after infection): 2.9 mg/kg
ED50 (Streptococcus pyogenes; Streptococcus pyogenes strain 2, challenge 1 × 10^4 - 5 × 10^4, treated 1 and 3.5 hours after infection): 0.93 mg/kg
MIC (Arizona hinshawii): 0.13 µg/mL (≈ 0.25 µM)
MIC (Listeria monocytogenes): 10.8 µg/mL (≈ 20.8 µM)
MIC (S. pneumoniae): 0.25 µg/mL (≈ 0.481 µM)
MIC (S. pyogenes): 0.5 µg/mL (≈ 0.962 µM)
susceptibility of Neisseria gonorrhoeae (Neisseria gonorrhoeae): equally susceptible
MIC (Proteus vulgaris; read-out: Minimum Inhibitory Concentration, Proteus vulgaris strain 1, A, Inoculum of 10^2 organisms): 1 µg/mL (≈ 1.92 µM)
MIC (Proteus vulgaris; read-out: Minimum Inhibitory Concentration, Proteus vulgaris strain 1, B, Inoculum of 10^6 organisms): 4 µg/mL (≈ 7.7 µM)
MIC (Proteus vulgaris; read-out: Minimum Inhibitory Concentration, Proteus vulgaris strain 2, A, Inoculum of 10^2 organisms): 1 µg/mL (≈ 1.92 µM)
MIC (Proteus vulgaris; read-out: Minimum Inhibitory Concentration, Proteus vulgaris strain 2, B, Inoculum of 10^6 organisms): 8 µg/mL (≈ 15.4 µM)
MIC (Proteus vulgaris; read-out: Minimum Inhibitory Concentration, Proteus vulgaris strain 4, A, Inoculum of 10^2 organisms): 1 µg/mL (≈ 1.92 µM)
MIC (Proteus vulgaris; read-out: Minimum Inhibitory Concentration, Proteus vulgaris strain 4, B, Inoculum of 10^6 organisms): 8 µg/mL (≈ 15.4 µM)
Tmax [4]: 15 min
half-life [4]: 33 min
Cmax ([4]; 20 mg/kg): 36000 ng/mL
